{"source": "ChEMBL document CHEMBL5126524", "about": "“Niemann-Pick C1-Like 1 inhibitors for reducing cholesterol absorption” (Eur J Med Chem, 2022)", "target": "T1, NPC1-like intracellular cholesterol transporter 1 (Homo sapiens, UniProt Q9UHC9)", "T1 sequence (Q9UHC9 whole entry)": "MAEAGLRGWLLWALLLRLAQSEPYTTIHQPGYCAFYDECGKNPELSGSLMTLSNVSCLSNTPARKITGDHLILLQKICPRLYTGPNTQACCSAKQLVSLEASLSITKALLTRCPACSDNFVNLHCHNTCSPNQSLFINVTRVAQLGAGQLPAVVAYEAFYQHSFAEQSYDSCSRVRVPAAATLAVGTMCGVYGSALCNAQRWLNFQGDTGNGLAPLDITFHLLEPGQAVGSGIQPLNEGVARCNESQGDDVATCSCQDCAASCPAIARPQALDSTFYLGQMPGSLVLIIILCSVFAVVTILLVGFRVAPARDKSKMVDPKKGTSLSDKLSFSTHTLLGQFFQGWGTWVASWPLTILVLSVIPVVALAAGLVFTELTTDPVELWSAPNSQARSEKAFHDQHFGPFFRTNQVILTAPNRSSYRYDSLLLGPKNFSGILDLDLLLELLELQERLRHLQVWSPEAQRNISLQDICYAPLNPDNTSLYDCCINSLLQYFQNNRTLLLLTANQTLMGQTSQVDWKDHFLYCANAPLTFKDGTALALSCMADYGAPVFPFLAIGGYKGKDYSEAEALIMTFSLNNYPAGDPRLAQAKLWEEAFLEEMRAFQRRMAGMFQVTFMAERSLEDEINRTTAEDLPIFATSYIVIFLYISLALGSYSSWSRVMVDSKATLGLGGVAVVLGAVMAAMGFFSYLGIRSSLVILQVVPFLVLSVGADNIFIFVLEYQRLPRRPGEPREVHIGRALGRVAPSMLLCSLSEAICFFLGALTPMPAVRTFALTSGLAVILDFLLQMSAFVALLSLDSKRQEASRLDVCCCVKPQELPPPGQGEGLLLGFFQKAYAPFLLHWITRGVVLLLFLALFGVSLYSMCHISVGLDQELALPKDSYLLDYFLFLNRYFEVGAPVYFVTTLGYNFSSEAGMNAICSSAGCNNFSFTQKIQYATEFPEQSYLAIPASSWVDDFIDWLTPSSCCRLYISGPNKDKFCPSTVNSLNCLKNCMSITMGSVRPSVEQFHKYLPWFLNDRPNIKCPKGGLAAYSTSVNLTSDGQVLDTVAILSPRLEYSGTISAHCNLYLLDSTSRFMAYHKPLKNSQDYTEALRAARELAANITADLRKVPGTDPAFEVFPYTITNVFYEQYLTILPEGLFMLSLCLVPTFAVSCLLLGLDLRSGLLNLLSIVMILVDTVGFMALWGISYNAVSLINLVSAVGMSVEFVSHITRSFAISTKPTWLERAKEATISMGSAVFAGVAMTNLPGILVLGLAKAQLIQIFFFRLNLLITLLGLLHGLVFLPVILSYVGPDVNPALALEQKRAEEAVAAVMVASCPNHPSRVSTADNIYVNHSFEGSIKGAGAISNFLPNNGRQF", "assay": "Inhibition of NPC1L1 (unknown origin) assessed as inhibition of cholesterol cellular uptake by BCA colorimetric assay"}
{"smiles": "O=C1[C@H](CC[C@H](O)c2ccc(F)cc2)[C@@H](c2ccc(O)cc2)N1c1ccc(F)cc1", "note": "[EZETIMIBE]", "values": [{"measurement": "IC50", "value": 370, "unit": "nM"}]}
